# From paper PMC7696940, “Effects of Rationally Designed Physico-Chemical Variants of the Peptide PuroA on Biocidal Activity towards Bacterial and Mammalian Cells” (International Journal of Molecular Sciences, 2020)
# Where no end group is shown, it is not given here.
# Assays:
# [1] = test system: porcine trypsin and proteinase K; experiment: Proteases stability assay; assay type: in vitro ADME, porcine; Tritirachium album; details: 1000 µg peptide with 50 µg protease (20:1 w/w), porcine trypsin or proteinase K, PBS pH 7.4, 37 °C, 3 h; read-out activity of supernatant on E. coli and S. aureus; triplicate
# Experimental: The effect of two well-studied proteases, porcine trypsin and proteinase K from Tritirachium album, on the activity of peptides was investigated as per Carmona et al.. Briefly, 1000 µg of a peptide was incubated with 50 µg of a protease (20:1 w/w) at 37 °C for 3 h in phosphate buffered saline PBS (pH 7.4). The enzyme activity was then terminated by heating (70 °C, 5 min) and the samples centrifuged at 12,000× g. The activity of the supernatant on E. coli and S. aureus was tested as above, in triplicate.
# [2] = test system: S. aureus ATCC25923; assay type: cell-based, Staphylococcus aureus; details: MHB; for MIC S. aureus, No NaCl: 0 mM NaCl; for MIC S. aureus, No NaCl / MIC S. aureus, With 50mM NaCl / MIC S. aureus, With 100mM NaCl / MIC S. aureus, With 150mM NaCl: triplicate, mode; for MIC S. aureus ATCC25923: 37 °C overnight, A595, mode of three independent experiments
# Experimental: (§1) The activity of peptides was determined against the Gram-positive Staphylococcus aureus (ATCC 25923), and the Gram-negative Escherichia coli (ATCC 25922) and Pseudomonas aeruginosa (ATCC 9027) bacteria. Selected peptides were also tested against two clinical isolates of methicillin-resistant Staphylococcus aureus (MRSA), M173525 and M180920, kindly provided by Dr P. B. Ward (Microbiology Department, Austin and Repatriation Medical Centre, Heidelberg West, Victoria, Australia). The Minimum inhibitory concentration (MIC) of peptides was determined by the microtitre broth dilution method, as described in Phillips et al.. Briefly, bacteria were grown in Mueller-Hinton Broth (MHB) at 37 °C overnight with shaking (200 rpm). The cultures were adjusted to 0.5 McFarland turbidity standard (approximately 1 × 10^8 colony forming units (CFU)/mL), then diluted 1:100 in MHB (1 × 10^6 CFU/mL). A total of 75 μL of these suspensions were mixed with 25 μL of peptide solutions (final concentrations 250 to 0.5 μg/mL) and the microtitre plates incubated overnight at 37 °C. Positive growth controls (inoculum and MHB, with no peptide) and sterility controls (0.01% glacial acetic) were also included. Post-incubations, the absorbance of cultures at 595 nm was measured using a microplate reader (POLARstar Omega, Germany). […] To evaluate salt sensitivity of peptides up to physiological levels (150 mM NaCl), overnight cultures of S. aureus and E. coli adjusted to 0.5 McFarland turbidity standard were diluted 1:100 in MHB containing 0, 50, 100 or 150 mM NaCl, and the MICs of peptides determined as above. All tests were conducted in triplicate. The results are shown as the mode of values obtained.
# [3] = test system: HeLa cells; assay type: cell-based, human; details: MTT, 24 h, peptide up to 250 µg/mL; concentration causing 50% cell growth inhibition; mean of triplicate assays
# Experimental: (§2) Cytotoxicity to human cervical carcinoma HeLa cells and mouse fibroblastic NIH-3T3 cells was determined using the MTT assay as per Scudiero et al. with minor modifications. The cells were maintained in Dulbecco’s Modified Eagle Medium (DMEM) with 10% foetal bovine serum (FBS) and 1% penicillin G in a humidified incubator (Heraeus Hera Cell incubator) at 37 °C with 5% CO2. They were seeded in 96-well microtiter plates at 1 × 10^4 cells/well and allowed to adhere for 24 h in the incubator. The medium was removed, and adherent cells were washed with PBS. Fresh media containing serially diluted peptides in PBS (final concentrations 4 to 250 µg/mL) were added and the cells incubated for 24 h. Cells without peptides were used as negative controls. Following incubations, the medium was removed, and adherent cells were washed with PBS. 150 µL of MTT (diluted to 0.33 mg/mL in DMEM) and the plates incubated for 3 h. The precipitated formazan was dissolved in 100 µL of DMSO and its absorbance measured at 570 nm. Cell viability was determined as: (OD570 nm peptide treated cells/(OD570 nm untreated cells) × 100. Positive cytotoxicity was defined as peptide concentration that causes 50% growth inhibition in a cell line (IC50). All tests were carried out in triplicate.
# [4] = test system: E. coli and S. aureus; experiment: Salt tolerance (MICs under 0-150 mM NaCl, summary); assay type: cell-based, Escherichia coli; Staphylococcus aureus; parameters: key: Up to 50 mM: no effects on antibacterial activity up to 50 mM NaCl but increase in the MICs for E. coli and S. aureus at 100 mM NaCl; Intolerant: not resistant to salt effects even at 50 mM NaCl; Up to 150 mM: no effects on antibacterial activity up to 150 mM NaCl; details: MICs for E. coli and S. aureus in MHB with 0, 50, 100 or 150 mM NaCl
# Experimental: as §1
# [5] = test system: NIH-3T3 cells; experiment: Cytotoxicity, MTT assay; assay type: cell-based, mouse; details: 24 h; for IC50 NIH-3T3: peptide up to 250 µg/mL, concentration causing 50% cell growth inhibition, mean of triplicate assays; for Cytotoxicity to NIH-3T3 mouse fibroblasts (in words): up to 250 µg/mL
# Experimental: as §2
# [6] = test system: pBlueScript SK+ plasmid DNA; experiment: In vitro DNA-binding assay (gel retardation); details: 100 ng pBlueScript SK+, peptide 8-500 µg/mL, 1 h room temperature, 1% agarose
# Experimental: The ability of peptides to bind to purified DNA (indicative of in vivo DNA binding potential) was tested by the modified gel retardation assay developed by Alfred et al.. The DNA of pBlueScript SK+ (100 ng) was incubated with peptides (to final concentrations of 8, 16, 32, 64, 125, 250 or 500 µg/mL) in 15 µL volumes made with sterile MilliQ water, the held at room temperature for 1h. Loading dye was added to each sample and the samples electrophoresed on 1% agarose gels. The gels were then immersed in ethidium bromide ([…]) then visualized and imaged
# [7] = test system: E. coli ATCC25922; assay type: cell-based, Escherichia coli; details: MHB; for MIC E. coli, No NaCl: 0 mM NaCl; for MIC E. coli, No NaCl / MIC E. coli, With 50mM NaCl / MIC E. coli, With 100mM NaCl / MIC E. coli, With 150mM NaCl: triplicate, mode; for MIC E. coli ATCC25922: 37 °C overnight, A595, mode of three independent experiments
# Experimental: as §1
# [8] = test system: C. albicans FRR 5580; assay type: cell-based, Candida albicans; details: PDB, overnight; mode of three independent experiments
# Experimental: The assay was carried out as per Alfred et al.. Candida albicans (FRR 5580) was grown in potato dextrose broth (PDB; Difco-BD, Bergen County, NJ, USA) overnight at 30 °C with shaking (200 rpm) until exponential phase, then adjusted to 0.5 McFarland turbidity standard (approximately 1 × 10^6 cells/mL) and diluted 1:200 with PDB to 0.5 − 2 × 10^3 cells/mL. Peptides in 25 μL volumes were mixed with 75 μL of the yeast suspensions. The controls were included as above. The plates were incubated overnight and absorbance was recorded. All the tests were conducted in triplicate.
# [9] = test system: P. aeruginosa ATCC9027; assay type: cell-based, Pseudomonas aeruginosa; details: MHB, 37 °C overnight, A595; mode of three independent experiments
# Experimental: as §1
Molecule,Protease Stability [1],"MIC S. aureus, No NaCl [2] [mg/L]","MIC S. aureus, With 50mM NaCl [2] [mg/L]","MIC S. aureus, With 100mM NaCl [2] [mg/L]","MIC S. aureus, With 150mM NaCl [2] [mg/L]",MIC S. aureus ATCC25923 [2] [mg/L],IC50 HeLa [3] [mg/L],Salt Tolerance [4],IC50 NIH-3T3 [5] [mg/L],Cytotoxicity to NIH-3T3 mouse fibroblasts (in words) [5],Binding to DNA in vitro (concentration inhibiting plasmid migration) [6] [µg/mL],Binding to DNA in vitro (concentration inhibiting plasmid migration) ([6]; listed as cyclized PuroA) [µg/mL],"MIC E. coli, No NaCl [7] [mg/L]","MIC E. coli, With 50mM NaCl [7] [mg/L]","MIC E. coli, With 100mM NaCl [7] [mg/L]","MIC E. coli, With 150mM NaCl [7] [mg/L]",MIC E. coli ATCC25922 [7] [mg/L],MIC C. albicans FRR 5580 [8] [mg/L],MIC P. aeruginosa ATCC9027 [9] [mg/L]
CC(C)[C@@H]1NC(=O)[C@@H]2CCCN2C(=O)[C@H](Cc2ccccc2)NC(=O)CNC(=O)[C@H](CCCCN)NC(=O)[C@H](Cc2c[nH]c3ccccc23)NC(=O)[C@H](Cc2c[nH]c3ccccc23)NC(=O)[C@H](CCCCN)NC(=O)[C@H](Cc2c[nH]c3ccccc23)NC(=O)[C@H](Cc2c[nH]c3ccccc23)NC(=O)[C@H](CCCNC(=N)N)NC(=O)[C@H](Cc2c[nH]c3ccccc23)NC(=O)[C@H]([C@@H](C)O)NC1=O [Cyclic PuroA],Unstable,125,250,250,> 250,125,>250,Intolerant,>250,no cytotoxicity,≥ 64,64,250,> 250,> 250,> 250,250,>250,>250
RRRRWRWWRWWRR-NH2 [Peptide R8],Unstable,64,64,64,64,,250,Up to 150 mM,>250,no cytotoxicity,≥ 64,,64,64,64,64,,250,64
"WRWWKWW-NH2 [dW7, diastereomeric counterpart of W7]",,8,8,8,8,8,125,Up to 150 mM,>250,,≥ 32,,8,8,8,8,8,64,16
WRWWKWWK-NH2 [Peptide W8],Unstable,8,8,8,8,8,250,Up to 150 mM,>250,no cytotoxicity,≥ 16,,4,4,4,4,4,64,32
